≈ marks a conversion by molar mass, not a printed value. Where two headings read alike, the source gives them in different places.
Assays:
Experiment in all cases: MIC against standard strains (agar dilution)
Assay type in all cases: cell-based
[1] = test system: Enterobacter cloacae P99
Protocol: (§1) Test example 1: Measurement of Minimum Inhibitory Concentration (MIC)
(§2) Specifically, test compounds were diluted by 2-fold dilution method and dispersed in Mueller-Hinton agar medium and then, 2µℓ of test strains were inoculated at a concentration of 10^7 cfu(colony forming unit)/mℓ on the medium and incubated for 20 hours at 37°C.

[2] = test system: Moraxella catarrhalis C2431
Protocol: as §1, §2

[3] = test system: Citrobacter diversus 2046E; conditions: Citrobacter koseri
Protocol: as §1, §2

[4] = test system: Escherichia coli 10536
Protocol: as §1, §2

[5] = test system: Escherichia coli TEM3 3455E; conditions: TEM33455E, 20 h
Protocol: as §1, §2

[6] = test system: Escherichia coli 3190Y; conditions: Escherichia coli, 3190Y, 20 h
Protocol: as §1, §2

[7] = test system: Escherichia coli 851E; conditions: Escherichia coli, 851E, 20 h
Protocol: as §1, §2

[8] = test system: Enterobacter cloacae IND+VE 1194E
Protocol: as §1, §2

[9] = test system: Enterococcus faecalis 29212
Protocol: as §1, §2

[10] = test system: Pseudomonas aeruginosa 1912E
Protocol: as §1, §2

[11] = test system: Pseudomonas aeruginosa 6065Y
Protocol: as §1, §2

[12] = test system: Acinetobacter calcoaceticu 15473
Protocol: as §1, §2

[13] = test system: Staphylococcus aureus 77
Protocol: as §1, §2

[14] = test system: Salmonella typhimurium 14028; conditions: Salmonella enterica
Protocol: as §1, §2

[15] = test system: Serratia marcescens 1826E
Protocol: as §1, §2

[16] = test system: Moraxella catarrhalis 25240
Protocol: as §1, §2

[17] = test system: Staphylococcus aureus 241
Protocol: as §1, §2

[18] = test system: Klebsiella aerogenes K1+ 1082E
Protocol: as §1, §2

[19] = test system: Klebsiella pneumoniae 2011E
Protocol: as §1, §2

[20] = test system: Staphylococcus aureus giorgio
Protocol: as §1, §2

[21] = test system: Staphylococcus epidermidi 887E
Protocol: as §1, §2

[22] = test system: Klebsiella aerogenes SHV-1 1976E; conditions: Klebsiella aerogenes, 20 h
Protocol: as §1, §2

[23] = test system: Morganella morganii 1375E
Protocol: as §1, §2

[24] = test system: Proteus vulgaris 6059
Protocol: as §1, §2

[25] = test system: Escherichia coli TEM1 1193E; conditions: TEM11193E, 20 h
Protocol: as §1, §2

[26] = test system: Citrobacter freundii 8090
Protocol: as §1, §2

[27] = test system: Escherichia coli TEM9 2639E; conditions: TEM92639E
Protocol: as §1, §2

[28] = test system: Staphylococcus aureus 6538p
Protocol: as §1, §2

C#CCO/N=C(\C(=O)NC1C(=O)N2C(C(=O)O)=C(Sc3cc(N)nc(N)n3)CSC12)c1csc(N)n1 (centres unmarked) [compound 28, 7-[(Z)-2-(2-amino-thiazol-4-yl)-2-propyn-2-yioxyimino-acetylamino]-3-(2,6-diamino-pyrimidin-4-ylsulfanyl)-8-oxo-5-thia1-aza-bicyclo[4,2,0]oct-2-ene-2-carboxylic acid]
MIC ([1]; Enterobacter cloacae, P99, 20 h): > 64 µg/mL | MIC ([2]; Moraxella catarrhalis, C2431, 20 h): 0.016 µg/mL (≈ 0.0292 µM) | MIC ([3]; 2046E, 20 h): > 64 µg/mL | MIC ([4]; Escherichia coli, 10536, 20 h): 0.25 µg/mL (≈ 0.457 µM) | MIC [5]: 16 µg/mL (≈ 29.2 µM) | MIC [6]: 0.13 µg/mL (≈ 0.237 µM) | MIC [7]: 0.25 µg/mL (≈ 0.457 µM) | MIC ([8]; Enterobacter cloacae, 20 h): > 64 µg/mL | MIC ([9]; Enterococcus faecalis, 29212, 20 h): 32 µg/mL (≈ 58.4 µM) | MIC ([10]; Pseudomonas aeruginosa, 1912E, 20 h): 32 µg/mL (≈ 58.4 µM) | MIC ([11]; Pseudomonas aeruginosa, 6065Y, 20 h): 64 µg/mL (≈ 117 µM) | MIC ([12]; Acinetobacter, 15473, 20 h): 32 µg/mL (≈ 58.4 µM) | MIC ([13]; Staphylococcus aureus, 77, 20 h): 4 µg/mL (≈ 7.3 µM) | MIC ([14]; TYPHIMURIUM, 20 h): 1 µg/mL (≈ 1.83 µM) | MIC ([15]; Serratia marcescens, 1826E, 20 h): 8 µg/mL (≈ 14.6 µM) | MIC ([16]; Moraxella catarrhalis, 25240, 20 h): 0.016 µg/mL (≈ 0.0292 µM) | MIC ([17]; Staphylococcus aureus, 241, 20 h): 8 µg/mL (≈ 14.6 µM) | MIC ([18]; Klebsiella aerogenes, 20 h): > 64 µg/mL | MIC ([19]; Klebsiella pneumoniae, 2011E, 20 h): 2 µg/mL (≈ 3.65 µM) | MIC ([20]; Staphylococcus aureus, 20 h): 0.5 µg/mL (≈ 0.913 µM) | MIC ([21]; Staphylococcus, 887E, 20 h): 8 µg/mL (≈ 14.6 µM) | MIC [22]: 0.5 µg/mL (≈ 0.913 µM) | MIC ([23]; Morganella morganii, 1375E, 20 h): 0.25 µg/mL (≈ 0.457 µM) | MIC ([24]; Proteus vulgaris, 6059, 20 h): 0.031 µg/mL (≈ 0.0566 µM) | MIC [25]: 0.5 µg/mL (≈ 0.913 µM) | MIC ([26]; Citrobacter freundii, 8090, 20 h): 2 µg/mL (≈ 3.65 µM) | MIC ([27]; Escherichia coli, 20 h): 64 µg/mL (≈ 117 µM) | MIC ([28]; Staphylococcus aureus, 6538P, 20 h): 1 µg/mL (≈ 1.83 µM)

CCO/N=C(\C(=O)NC1C(=O)N2C(C(=O)O)=C(Sc3cc(N)nc(N)n3)CSC12)c1csc(N)n1 (centres unmarked) [compound 27, 7-[(Z)-2-(2-amino-thiazol-4-yl)-2-ethoxyiminoacetylamino]-3-(2,6-diamino-pyrimidin-4-ylsulfanyl)-8-oxo-5-thia-1-aza-bi cyclo[4,2,0]oct-2-ene-2-carboxylic acid]
MIC ([1]; Enterobacter cloacae P99, Mueller-Hinton agar, 20 hours at 37°C, read-out: MIC): > 64 µg/mL | MIC ([2]; Moraxella catarrhalis C2431, Mueller-Hinton agar, 20 hours at 37°C, read-out: MIC): ≤ 0.008 µg/mL | MIC ([3]; Citrobacter diversus 2046E, Mueller-Hinton agar, 20 hours at 37°C, read-out: MIC): 64 µg/mL (≈ 119 µM) | MIC ([4]; Escherichia coli 10536, Mueller-Hinton agar, 20 hours at 37°C, read-out: MIC): 0.25 µg/mL (≈ 0.465 µM) | MIC [5]: 16 µg/mL (≈ 29.8 µM) | MIC [6]: 0.13 µg/mL (≈ 0.242 µM) | MIC [7]: 0.25 µg/mL (≈ 0.465 µM) | MIC ([8]; Enterobacter cloacae IND+VE 1194E, Mueller-Hinton agar, 20 hours at 37°C, read-out: MIC): > 64 µg/mL | MIC ([9]; Enterococcus faecalis 29212, Mueller-Hinton agar, 20 hours at 37°C, read-out: MIC): 64 µg/mL (≈ 119 µM) | MIC ([10]; Pseudomonas aeruginosa 1912E, Mueller-Hinton agar, 20 hours at 37°C, read-out: MIC): 8 µg/mL (≈ 14.9 µM) | MIC ([11]; Pseudomonas aeruginosa 6065Y, Mueller-Hinton agar, 20 hours at 37°C, read-out: MIC): 64 µg/mL (≈ 119 µM) | MIC ([12]; Acinetobacter calcoaceticu 15473, Mueller-Hinton agar, 20 hours at 37°C, read-out: MIC): 32 µg/mL (≈ 59.5 µM) | MIC ([13]; Staphylococcus aureus 77, Mueller-Hinton agar, 20 hours at 37°C, read-out: MIC): 4 µg/mL (≈ 7.44 µM) | MIC ([14]; Salmonella typhimurium 14028, Mueller-Hinton agar, 20 hours at 37°C, read-out: MIC): 1 µg/mL (≈ 1.86 µM) | MIC ([15]; Serratia marcescens 1826E, Mueller-Hinton agar, 20 hours at 37°C, read-out: MIC): 4 µg/mL (≈ 7.44 µM) | MIC ([16]; Moraxella catarrhalis 25240, Mueller-Hinton agar, 20 hours at 37°C, read-out: MIC): ≤ 0.008 µg/mL | MIC ([17]; Staphylococcus aureus 241, Mueller-Hinton agar, 20 hours at 37°C, read-out: MIC): 8 µg/mL (≈ 14.9 µM) | MIC ([18]; Klebsiella aerogenes K1+ 1082E, Mueller-Hinton agar, 20 hours at 37°C, read-out: MIC): > 64 µg/mL | MIC ([19]; Klebsiella pneumoniae 2011E, Mueller-Hinton agar, 20 hours at 37°C, read-out: MIC): 2 µg/mL (≈ 3.72 µM) | MIC ([20]; Staphylococcus aureus giorgio, Mueller-Hinton agar, 20 hours at 37°C, read-out: MIC): 0.5 µg/mL (≈ 0.93 µM) | MIC ([21]; Staphylococcus epidermidi 887E, Mueller-Hinton agar, 20 hours at 37°C, read-out: MIC): 8 µg/mL (≈ 14.9 µM) | MIC [22]: 0.5 µg/mL (≈ 0.93 µM) | MIC ([23]; Morganella morganii 1375E, Mueller-Hinton agar, 20 hours at 37°C, read-out: MIC): 0.25 µg/mL (≈ 0.465 µM) | MIC ([24]; Proteus vulgaris 6059, Mueller-Hinton agar, 20 hours at 37°C, read-out: MIC): 0.063 µg/mL (≈ 0.117 µM) | MIC [25]: 0.5 µg/mL (≈ 0.93 µM) | MIC ([26]; Citrobacter freundii 8090, Mueller-Hinton agar, 20 hours at 37°C, read-out: MIC): 2 µg/mL (≈ 3.72 µM) | MIC ([27]; Escherichia coli TEM9 2639E, Mueller-Hinton agar, 20 hours at 37°C, read-out: MIC): 64 µg/mL (≈ 119 µM) | MIC ([28]; Staphylococcus aureus 6538p, Mueller-Hinton agar, 20 hours at 37°C, read-out: MIC): 2 µg/mL (≈ 3.72 µM)

From patent publication EP1077981B1, “NOVEL CEPHALOSPORIN COMPOUNDS, PROCESSES FOR PREPARATION THEREOF AND ANTIMICROBIAL COMPOSITIONS CONTAINING THE SAME” (LG CHEMICAL LIMITED, priority 1998, dated 1999)
